According to PubChem BioAssay (NCI):
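Compound exposure: 48 hours, 5 concentrations, 96-well plates. Abbreviation: GI50, concentration required for 50% inhibition of growth. At the TGI there is no net growth.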

What was measured:
Experiment in all cases: inhibition of tumour cell growth, NCI panel, 48 h
[1] = system: M14 melanoma
[2] = system: UO-31 renal
[3] = system: HT29 colon
[4] = system: K-562 leukemia
[5] = system: HOP-62 NSCLC
[6] = system: MCF7 breast
[7] = system: CAKI-1 renal
[8] = system: HS 578T breast
[9] = system: T-47D breast
[10] = system: U251 CNS
[11] = system: RXF 393 renal
[12] = system: MALME-3M melanoma
[13] = system: OVCAR-4 ovarian
[14] = system: OVCAR-3 ovarian
[15] = system: UACC-62 melanoma
[16] = system: IGROV1 ovarian
[17] = system: TK-10 renal
[18] = system: NCI/ADR-RES ovarian
[19] = system: SNB-75 CNS
[20] = system: SN12C renal
[21] = system: MOLT-4 leukemia
[22] = system: 786-0 renal
[23] = system: SF-268 CNS
[24] = system: MDA-MB-435
[25] = system: NCI-H460 lung
[26] = system: NCI-H522 lung
[27] = system: SR leukemia
[28] = system: HCT-116 colon
[29] = system: OVCAR-8 ovarian
[30] = system: KM12 colon
[31] = system: HCC-2998 colon
[32] = system: HCT-15 colon
[33] = system: OVCAR-5 ovarian
[34] = system: PC-3 prostate
[35] = system: ACHN renal
[36] = system: BT-549 breast
[37] = system: UACC-257 melanoma
[38] = system: CCRF-CEM leukemia
[39] = system: LOX IMVI melanoma
[40] = system: EKVX NSCLC
[41] = system: RPMI-8226 leukemia
[42] = system: A498 renal
[43] = system: SNB-19 CNS
[44] = system: SK-MEL-28 melanoma
[45] = system: DU-145 prostate
[46] = system: HOP-92 NSCLC
[47] = system: MDA-MB-231 breast
[48] = system: SF-539 CNS
[49] = system: A549 NSCLC
[50] = system: SK-MEL-2 melanoma
[51] = system: SF-295 CNS
[52] = system: HL-60(TB) leukemia
[53] = system: NCI-H23 lung
[54] = system: COLO 205 colon
[55] = system: NCI-H226 lung
[56] = system: SW-620 colon
[57] = system: SK-MEL-5 melanoma
[58] = system: SK-OV-3 ovarian

Compound Cc1cc(O)c(C2=NN(c3ccc(S(N)(=O)=O)cc3)C(c3ccc(Cl)cc3)C2)c(C)c1Cl (stereo not given) has a GI50 [1] of 2.62 µM, a TGI [1] of 10.4 µM and a GI50 [2] of 3.78 µM. For the same compound, the TGI [2] was 19.2 µM, the GI50 [3] was 3.3 µM and the TGI [3] was 11 µM. It also gave a GI50 [4] of 2.24 µM, a TGI [4] of 11.5 µM and a GI50 [5] of 10.4 µM. The TGI [5] was 23.3 µM, the GI50 [6] was 2.01 µM and the TGI [6] was 10.5 µM. It also gave a GI50 [7] of 4.38 µM, a TGI [7] of 18.2 µM and a GI50 [8] of 3.45 µM. For the same compound, the TGI [8] was 20 µM, the GI50 [9] was 2.93 µM and the TGI [9] was 14.9 µM. The GI50 [10] was 3.34 µM, the TGI [10] was 13.5 µM and the GI50 [11] was 5.83 µM. For the same compound, the TGI [11] was 21.1 µM, the GI50 [12] was 14.8 µM and the TGI [12] was 35.2 µM. It also gave a GI50 [13] of 7.69 µM, a TGI [13] of 21.2 µM and a GI50 [14] of 4.21 µM. The TGI [14] was 15.7 µM, the GI50 [15] was 3.49 µM and the TGI [15] was 15.1 µM. It also gave a GI50 [16] of 6.19 µM, a TGI [16] of 22.3 µM and a GI50 [17] of 4.48 µM. For the same compound, the TGI [17] was 18.8 µM, the GI50 [18] was 4.63 µM and the TGI [18] was 17 µM. The GI50 [19] was 10.9 µM, the TGI [19] was 23.7 µM and the GI50 [20] was 5.71 µM. The TGI [20] was 19.2 µM, the GI50 [21] was 1.94 µM and the TGI [21] was 7.25 µM. It also gave a GI50 [22] of 4.97 µM, a TGI [22] of 17.4 µM and a GI50 [23] of 5.76 µM. For the same compound, the TGI [23] was 19.4 µM, the GI50 [24] was 3.57 µM and the TGI [24] was 14.8 µM. It also gave a GI50 [25] of 2.53 µM, a TGI [25] of 7.24 µM and a GI50 [26] of 6.24 µM. The TGI [26] was 21.6 µM, the GI50 [27] was 1.28 µM and the TGI [27] was 5.02 µM. It also gave a GI50 [28] of 3.47 µM, a TGI [28] of 12.9 µM and a GI50 [29] of 5.75 µM. It also gave a TGI [29] of 21.6 µM, a GI50 [30] of 2.8 µM and a TGI [30] of 10.6 µM. It also gave a GI50 [31] of 6.48 µM, a TGI [31] of 19.1 µM and a GI50 [32] of 5.48 µM. For the same compound, the TGI [32] was 20.8 µM, the GI50 [33] was 12.3 µM and the TGI [33] was 24.7 µM. It also gave a GI50 [34] of 4.44 µM, a TGI [34] of 16.8 µM and a GI50 [35] of 3.7 µM. It also gave a TGI [35] of 14.4 µM, a GI50 [36] of 13.1 µM and a TGI [36] of 27.7 µM. For the same compound, the GI50 [37] was 11.9 µM, the TGI [37] was 26.8 µM and the GI50 [38] was 3.64 µM. It also gave a TGI [38] of 13.5 µM, a GI50 [39] of 2.34 µM and a TGI [39] of 6.98 µM. It also gave a GI50 [40] of 1.88 µM, a TGI [40] of 13.6 µM and a GI50 [41] of 3.99 µM. The TGI [41] was 17.8 µM, the GI50 [42] was 6.97 µM and the TGI [42] was 19.3 µM. For the same compound, the GI50 [43] was 12.4 µM, the TGI [43] was 24.9 µM and the GI50 [44] was 11.7 µM. For the same compound, the TGI [44] was 23.9 µM, the GI50 [45] was 5.6 µM and the TGI [45] was 17.6 µM. It also gave a GI50 [46] of 3.74 µM, a TGI [46] of 17.6 µM and a GI50 [47] of 2.34 µM. The TGI [47] was 11.8 µM, the GI50 [48] was 12.3 µM and the TGI [48] was 24.7 µM. It also gave a GI50 [49] of 5.91 µM, a TGI [49] of 22.5 µM and a GI50 [50] of 11.9 µM. The TGI [50] was 27.6 µM, the GI50 [51] was 16 µM and the TGI [51] was 31.6 µM. For the same compound, the GI50 [52] was 7.84 µM, the TGI [52] was 20.8 µM and the GI50 [53] was 5.82 µM. For the same compound, the TGI [53] was 19.9 µM, the GI50 [54] was 1.69 µM and the TGI [54] was 3.31 µM. For the same compound, the GI50 [55] was 10.5 µM, the TGI [55] was 24.1 µM and the GI50 [56] was 3.72 µM. For the same compound, the TGI [56] was 15.2 µM, the GI50 [57] was 9.59 µM and the TGI [57] was 21.4 µM. For the same compound, the GI50 [58] was 7.75 µM and the TGI [58] was 20.6 µM.
OCc1ccc(-c2cscc2-c2ccc(CO)o2)o1 was tested, and the GI50 [1] was > 100 µM, the TGI [1] was > 100 µM and the GI50 [2] was 56.1 µM. For the same compound, the TGI [2] was > 100 µM, the GI50 [3] was 7.03 µM and the TGI [3] was > 100 µM. The GI50 [4] was 7.02 µM, the TGI [4] was > 100 µM and the GI50 [5] was 3.55 µM. The TGI [5] was 37.6 µM, the GI50 [6] was 0.57 µM and the TGI [6] was 25.1 µM. The GI50 [7] was 5 µM, the TGI [7] was > 100 µM and the GI50 [8] was > 78.3 µM. The TGI [8] was > 100 µM, the GI50 [9] was 1.46 µM and the TGI [9] was 9.65 µM. The GI50 [10] was 44.1 µM, the TGI [10] was > 100 µM and the GI50 [11] was > 20.8 µM. The TGI [11] was > 89.5 µM, the GI50 [12] was > 100 µM and the TGI [12] was > 100 µM. It also gave a GI50 [13] of 4.79 µM, a TGI [13] of 49.4 µM and a GI50 [14] of 4.04 µM. It also gave a TGI [14] of 30.6 µM, a GI50 [15] of 0.435 µM and a TGI [15] of 2.2 µM. The GI50 [16] was 0.576 µM, the TGI [16] was 6.47 µM and the GI50 [17] was > 100 µM. For the same compound, the TGI [17] was > 100 µM, the GI50 [18] was 32.9 µM and the TGI [18] was > 100 µM. The GI50 [19] was 34.5 µM, the TGI [19] was > 100 µM and the GI50 [20] was > 100 µM. The TGI [20] was > 100 µM, the GI50 [21] was > 100 µM and the TGI [21] was > 100 µM. For the same compound, the GI50 [22] was > 33.8 µM, the TGI [22] was > 100 µM and the GI50 [23] was > 100 µM. For the same compound, the TGI [23] was > 100 µM, the GI50 [24] was > 100 µM and the TGI [24] was > 100 µM. For the same compound, the GI50 [25] was 1.34 µM, the TGI [25] was 5.92 µM and the GI50 [26] was > 93.3 µM. The TGI [26] was > 100 µM, the GI50 [27] was > 100 µM and the TGI [27] was > 100 µM. For the same compound, the GI50 [28] was 1.65 µM, the TGI [28] was > 69.5 µM and the GI50 [29] was 29.9 µM. For the same compound, the TGI [29] was > 100 µM, the GI50 [30] was 97.4 µM and the TGI [30] was > 100 µM. For the same compound, the GI50 [31] was 24.2 µM, the TGI [31] was > 96.6 µM and the GI50 [32] was > 80.1 µM. For the same compound, the TGI [32] was > 100 µM, the GI50 [33] was 0.216 µM and the TGI [33] was 1.97 µM. For the same compound, the GI50 [34] was > 75 µM, the TGI [34] was > 100 µM and the GI50 [35] was > 100 µM. For the same compound, the TGI [35] was > 100 µM, the GI50 [36] was > 87.5 µM and the TGI [36] was > 100 µM. For the same compound, the GI50 [37] was 0.507 µM, the TGI [37] was 1.91 µM and the GI50 [38] was > 100 µM. For the same compound, the TGI [38] was > 100 µM, the GI50 [39] was > 100 µM and the TGI [39] was > 100 µM. For the same compound, the GI50 [41] was 28.4 µM, the TGI [41] was > 100 µM and the GI50 [42] was 0.0156 µM. For the same compound, the TGI [42] was 0.0381 µM, the GI50 [43] was > 100 µM and the TGI [43] was > 100 µM. The GI50 [44] was > 100 µM, the TGI [44] was > 100 µM and the GI50 [45] was 25.9 µM. The TGI [45] was > 100 µM, the GI50 [46] was 16.1 µM and the TGI [46] was > 94 µM. The GI50 [47] was > 100 µM, the TGI [47] was > 100 µM and the GI50 [48] was > 100 µM. For the same compound, the TGI [48] was > 100 µM, the GI50 [49] was 3.89 µM and the TGI [49] was 30.6 µM. The GI50 [50] was 22.5 µM, the TGI [50] was > 100 µM and the GI50 [51] was 0.923 µM. The TGI [51] was 20.3 µM, the GI50 [52] was > 100 µM and the TGI [52] was > 100 µM. For the same compound, the GI50 [53] was 64.6 µM, the TGI [53] was > 100 µM and the GI50 [54] was 1.97 µM. For the same compound, the TGI [54] was 4.83 µM, the GI50 [55] was 0.112 µM and the TGI [55] was 0.485 µM. The GI50 [56] was 7.14 µM, the TGI [56] was > 100 µM and the GI50 [57] was 16.2 µM. For the same compound, the TGI [57] was > 100 µM, the GI50 [58] was 8.98 µM and the TGI [58] was 50.3 µM.
